Activity calls are given as the source filed them. No cut-off for these calls is given here.
Columns and labels:
HepG2 [1] = assay: Cytotoxicity against human HepG2 cells assessed as inhibition of cell proliferation measured after 48 hrs by MTT assay; format: functional, cell-based; settings: HepG2, 48 h
PC-3 = assay: Cytotoxicity against human PC-3 cells assessed as inhibition of cell proliferation measured after 48 hrs by MTT assay; format: functional, cell-based; settings: PC-3, 48 h
[2] = Cytotoxicity against human HBE cells assessed as inhibition of cell proliferation measured after 48 hrs by MTT assay; format: cell-based
NCI-H1299 = assay: Cytotoxicity against human NCI-H1299 cells assessed as inhibition of cell proliferation measured after 48 hrs by MTT assay; format: functional, cell-based; settings: NCI-H1299, 48 h
NCI-H1975 = assay: Cytotoxicity against human NCI-H1975 cells assessed as inhibition of cell proliferation measured after 48 hrs by MTT assay; format: functional, cell-based; settings: NCI-H1975, 48 h
[3] = Cytotoxicity against human A549/DDP cells assessed as inhibition of cell proliferation measured after 48 hrs by MTT assay; format: functional, cell-based
HepG2 [4] = assay: Cytotoxicity against human HepG2 cells assessed as increase in release of LDH measured after 48 hrs by LDH assay; format: functional, cell-based; settings: dose 100-200 nM
HepG2 [5] = assay: Induction of apoptosis in human HepG2 cells assessed as induction of morphological changes by measuring nuclear shrinkage and cleavage at 25 to 100 nM measured after 48 hrs by DAPI staining based inverted fluorescence microscope analysis; format: functional, cell-based; settings: dose 25-100 nM
HepG2 [6] = assay: Induction of apoptosis in human HepG2 cells assessed as live cells at 50 nM measured after 48 hrs by Annexin V-FITC/PI double staining based flow cytometry analysis (Rvb= 94.8%); format: functional
HepG2 [7] = assay: Induction of apoptosis in human HepG2 cells assessed as early apoptotic cells at 50 nM measured after 48 hrs by Annexin V-FITC/PI double staining based flow cytometry analysis (Rvb= 2.16%); format: functional
HepG2 [8] = assay: Induction of apoptosis in human HepG2 cells assessed as late apoptotic cells at 50 nM measured after 48 hrs by Annexin V-FITC/PI double staining based flow cytometry analysis (Rvb= 2.89%); format: functional
HepG2 [9] = assay: Induction of apoptosis in human HepG2 cells assessed as necrotic cells at 75 nM measured after 48 hrs by Annexin V-FITC/PI double staining based flow cytometry analysis (Rvb= 0.13%); format: functional
HepG2 [10] = assay: Induction of apoptosis in human HepG2 cells assessed as live cells at 100 nM measured after 48 hrs by Annexin V-FITC/PI double staining based flow cytometry analysis (Rvb= 94.8%); format: functional
HepG2 [11] = assay: Induction of apoptosis in human HepG2 cells assessed as early apoptotic cells at 100 nM measured after 48 hrs by Annexin V-FITC/PI double staining based flow cytometry analysis (Rvb= 2.16%); format: functional
HepG2 [12] = assay: Induction of apoptosis in human HepG2 cells assessed as late apoptotic cells at 100 nM measured after 48 hrs by Annexin V-FITC/PI double staining based flow cytometry analysis (Rvb= 2.89%); format: functional
HepG2 [13] = assay: Induction of apoptosis in human HepG2 cells assessed as necrotic cells at 100 nM measured after 48 hrs by Annexin V-FITC/PI double staining based flow cytometry analysis (Rvb= 0.13%); format: functional
HepG2 [14] = assay: Induction of apoptosis in human HepG2 cells assessed as live cells at 150 nM measured after 48 hrs by Annexin V-FITC/PI double staining based flow cytometry analysis (Rvb= 94.8%); format: functional
HepG2 [15] = assay: Induction of apoptosis in human HepG2 cells assessed as early apoptotic cells at 150 nM measured after 48 hrs by Annexin V-FITC/PI double staining based flow cytometry analysis (Rvb= 2.16%); format: functional
HepG2 [16] = assay: Induction of apoptosis in human HepG2 cells assessed as late apoptotic cells at 150 nM measured after 48 hrs by Annexin V-FITC/PI double staining based flow cytometry analysis (Rvb= 2.89%); format: functional
HepG2 [17] = assay: Induction of apoptosis in human HepG2 cells assessed as necrotic cells at 150 nM measured after 48 hrs by Annexin V-FITC/PI double staining based flow cytometry analysis (Rvb= 0.13%); format: functional
[18] = Drug uptake in mitochondria of human HepG2 cells at 10 uM incubated for 7 hrs by RP-HPLC method relative to TP; format: ADME; settings: hepg2, 7 h
HepG2 [19] = assay: Induction of mitochondrial membrane potential loss in human HepG2 cells assessed as proportion of cells with hyperpolarized mitochondria at 50 nM measured after 48 hrs by JC-1 staining based flow cytometry analysis (Rvb= 80.9%); format: functional
HepG2 [20] = assay: Induction of mitochondrial membrane potential loss in human HepG2 cells assessed as proportion of cells with depolarized mitochondria at 50 nM measured after 48 hrs by JC-1 staining based flow cytometry analysis (Rvb= 9.1%); format: functional
HepG2 [21] = assay: Induction of mitochondrial membrane potential loss in human HepG2 cells assessed as proportion of cells with depolarized mitochondria at 75 nM measured after 48 hrs by JC-1 staining based flow cytometry analysis (Rvb= 9.1%); format: functional
HepG2 [22] = assay: Induction of mitochondrial membrane potential loss in human HepG2 cells assessed as proportion of cells with depolarized mitochondria at 100 nM measured after 48 hrs by JC-1 staining based flow cytometry analysis (Rvb= 9.1%); format: functional
HepG2 [23] = assay: Induction of mitochondrial membrane potential loss in human HepG2 cells assessed as proportion of cells with hyperpolarized mitochondria at 150 nM measured after 48 hrs by JC-1 staining based flow cytometry analysis (Rvb= 80.9%); format: functional
HepG2 [24] = assay: Induction of mitochondrial membrane potential loss in human HepG2 cells assessed as proportion of cells with depolarized mitochondria at 150 nM measured after 48 hrs by JC-1 staining based flow cytometry analysis (Rvb= 9.1%); format: functional
HepG2 [25] = assay: Induction of mitochondrial membrane potential loss in human HepG2 cells assessed as proportion of cells with depolarized mitochondria at 200 nM measured after 48 hrs by JC-1 staining based flow cytometry analysis (Rvb= 9.1%); format: functional
[26] = Toxicity in zebrafish AB assessed as body length at 0.05 to 2 uM measured at 72 hrs postfertilization; parameters: species or system Danio rerio; settings: in vivo, dose 0.05-2 µM
[27] = Toxicity in zebrafish AB assessed as pericardial edema at 12 uM measured at 72 hrs postfertilization; parameters: species or system Danio rerio; settings: in vivo
[28] = Toxicity in zebrafish AB assessed as mortality at <12 uM measured at 72 hrs postfertilization; parameters: species or system Danio rerio; settings: in vivo
[29] = Toxicity in zebrafish AB assessed as hatching rate at <12 uM measured at 72 hrs postfertilization; parameters: species or system Danio rerio; settings: in vivo
[30] = Hepatotoxicity in transgenic zebrafish Tg(1-fabp:EGFP) assessed as liver damage by measuring decrease in fluorescence intensity and area at 0.05 to 0.5 uM measured after 96 hrs; format: toxicity, tissue-based, Danio rerio; settings: in vivo, dose 0.05-0.5 µM
HepG2 [31] = assay: Antitumor activity against human HepG2 cells xenografted in zebra fish AB assessed as tumor growth inhibition at 1 uM measured after 48 hrs by fluorescence microscopic analysis; format: functional, cell-based
[32] = Toxicity in zebrafish AB assessed as increase in embryo malformation rate at 0.05 to 2 uM measured at 72 hrs postfertilization; parameters: species or system Danio rerio; settings: in vivo, dose 0.05-2 µM
[33] = Toxicity in zebrafish AB assessed as increase in hatching rate at 0.05 to 2 uM measured at 72 hrs postfertilization; parameters: species or system Danio rerio; settings: in vivo, dose 0.05-2 µM

`CC(C)[C@]12O[C@H]1[C@@H]1O[C@]13[C@]1(O[C@H]1C[C@H]1C4=C(CC[C@@]13C)C(=O)OC4)[C@@H]2OC(=O)CCCCC[P+](c1ccccc1)(c1ccccc1)c1ccccc1.[Br-]` gave an IC50 (HepG2 [1]) of 67 nM, an IC50 (PC-3) of 186 nM and an IC50 [2] of 210 nM. It also gave an IC50 (NCI-H1299) of 254 nM, an IC50 (NCI-H1975) of 88 nM and an IC50 [3] greater than 10 µM. The Activity (HepG2 [4]) was “Dose-Dependent Effect”, the Activity (HepG2 [5]) was “Active” and the Activity (HepG2 [6]) was 91.2%. The Activity (HepG2 [7]) was 3.89%, the Activity (HepG2 [8]) was 1.23% and the Activity (HepG2 [9]) was 0.17%. The Activity (HepG2 [10]) was 59.9%, the Activity (HepG2 [11]) was 27.8% and the Activity (HepG2 [12]) was 12.1%. The Activity (HepG2 [13]) was 0.18%, the Activity (HepG2 [14]) was 49.6% and the Activity (HepG2 [15]) was 33.7%. For the same molecule, the Activity (HepG2 [16]) was 16.6%, the Activity (HepG2 [17]) was 0.1% and the “fold change (FC)” value [18] was 3. It also gave an Activity (HepG2 [19]) of 74.7%, an Activity (HepG2 [20]) of 25.3% and an Activity (HepG2 [21]) of 35.6%. For the same molecule, the Activity (HepG2 [22]) was 45.6%, the Activity (HepG2 [23]) was 51.1% and the Activity (HepG2 [24]) was 48.9%. For the same molecule, the Activity (HepG2 [25]) was 55.7%, the Activity [26] was “Non-Toxic” and the Activity [27] was “Toxic”. For the same molecule, the Activity [28] was “Non-Toxic”, the Activity [29] was “Non-Toxic” and the Activity [30] was “Non-Toxic”. For the same molecule, the Activity (HepG2 [31]) was “Active”, the Activity [32] was “Non-Toxic” and the Activity [33] was “Non-Toxic”.

From ChEMBL document CHEMBL4840355, “Antitumor and toxicity study of mitochondria-targeted triptolide derivatives using triphenylphosphine (TPP+) as a carrier” (Bioorg Med Chem, 2021)
